Data on two compounds can be found in patent publication US11000518B2, “Use of combination of VEGFR inhibitor and PARP inhibitor in preparation of medicament for treating gastric cancer” (Jiangsu Hengrui Medicine Co., Ltd., priority 2016, dated 2021).

Structures can show the parent of a compound that is named as a salt.

Test [1] concerns advanced prostate cancer patients with DNA repair gene mutations. Conditions: phase II clinical trial; cited from earlier work.
Test [2] concerns human gastric cancer PDX model STO #069. The test can be described thus: Efficacy on subcutaneous implantation tumor of human gastric cancer PDX model STO #069 tumor-bearing nude mice. The format is in vivo, BALB/c nude mice.
Protocol: Efficacy of the Composition of the Present Invention on the Subcutaneous Implantation Tumor of Human Gastric Cancer PDX Model STO #069 Tumor-Bearing Nude Mice
Test animals: BALB/c nude mice, 6-7 weeks old, female, purchased from Beijing Vital River Laboratory Animal Technology Co., Ltd., with laboratory animals use license No.: SCXK (Shanghai) 2015-0022 and animal certificate No.: 11400700166108, feeding condition: SPF grade.
Control group: solvent group.
Compound A: compound A (100 mg) was weighed, added with 0.5% carboxymethylcellulose solution (10 mL), vortex-mixed or ultrasonic-mixed until the solution was clear, and stored at 4° C., and the dose volume was 5 mL/kg;
Compound B: compound B (540 mg) was weighed and dissolved in purified water (31 mL), then added with 0.2% Tween 80 (0.18 mL) and 10% PEG 400 (9.0 mL), vortex-mixed until the solution was clear, followed by adding purified water to a solution volume of 90 mL and storing at 4° C., and the dose volume was 5 mL/kg;
Cisplatin: cisplatin (3 mg) was weighed and dissolved in normal saline (6.0 mL), the concentration of the solution was 0.5 mg/mL, and the solution was prepared to a total of 6.0 mL, stored at 4° C., and filtrated with a 0.22 μm Millipore Millex® membrane before each use;
Paclitaxel: paclitaxel (6 mg/mL, 1.5 mL) was formulated into a solution (1.5 mg/mL) with normal saline (6.0 mL) and stored at 4° C., which was freshly formulated before each use.
After the tumor grew to 600-700 mm^3, it was passaged in the nude mice, which were defined as passage 0 (P0); after implantation of tumor passage 0 (P0), the mice were defined as passage 1 (P1); the passage was thus defined according to the order continuously implanted in nude mice; the next passage generated from FP5 was defined as FP6, and so on; and the FP6 tumor tissue was used for this study.
(1) Tumor implantation: the STO #069 FP6 tumor tissue (which was pathologically diagnosed as gastric poorly differentiated adenocarcinoma) was cut into small pieces (˜30 mm^3), and implanted subcutaneously into the right side of the nude mice. After the mean tumor size was close to 150-250 mm^3, the mice were grouped and treated, a total of 7 groups, each group of 6 tumor-bearing mice.
(2) Observation and recording: the tumor volume was measured 2-3 times per week, the mice were weighed, and the data were recorded.
The tumor volume was measured twice a week with a caliper and measured in two dimensions, the unit is mm^3;
V=½×a×b^2, wherein a and b represented length and width, respectively.
T/C (%)=(T−T0)/(C−C0)×100%, wherein T and C represented the tumor volumes of the administration group and the solvent group at the end of the experiment, respectively; and T0 and C0 represented the tumor volumes of the administration group and the solvent group at the start of the experiment, respectively.
The endpoint of the experiment: The endpoint of the efficacy study was set to 21 days. If the tumor volume>2000 mm^3, or if a nude mouse lost more than 20% of its weight or was very ill and cannot get enough food or water, the nude mouse would be removed from the experimental group and euthanized.
[3] abbreviates: D 21, compound A 50 mg/kg PO QD × 21, compound B 30 mg/kg PO BID × 21, cisplatin 5 mg/kg IP QW × 3, paclitaxel 15 mg/kg IP QW × 3.

Take `O=C(c1cc(Cc2n[nH]c(=O)c3ccccc23)ccc1F)N1CCN(C(=O)C2CC2)CC1` [Olaparib]: the response in test [1] is recorded as 88%.
Take `N#CC1(c2ccc(NC(=O)c3cccnc3NCc3ccncc3)cc2)CCCC1` [Compound A, Apatinib mesylate]: the Partial regression in test [2] (6 animals per group, same doses as TGI column) is recorded as 0. In addition, the “Mean tumor volume (mm^3) (Mean ± SEM) D 0” value in test [2] (D 0 = first administration time (baseline), STO#069 nude mice, n = 6) was determined as 185.4 ± 17.0 mm^3. Also, in test [2] (setting [3]), the “% T/C D 21” value is given as 44.68%, the “% tumor growth inhibition (TGI) D 21” value came to 55.32% and the “Mean tumor volume (mm^3) (Mean ± SEM) D 21” value was determined as 465.9 ± 17.0 mm^3. Further, the tumor inhibition rate in test [2] (Day 21 of administration, compound A 50 mg/kg QD×21, compound B 30 mg/kg BID×21, cisplatin 5 mg/kg QW×3, paclitaxel 15 mg/kg QW×3) is given as 55.32%.
